Measured values as given in article PMC9884426, “A phase 1 clinical trial of the repurposable acetyllysine mimetic, n-methyl-2-pyrrolidone (NMP), in relapsed or refractory multiple myeloma” (Clinical Epigenetics, 2023).
Several values for one entry are separate records, joined by “and”; a condition that tells them apart may be missing. Equal values may be shown once. Read-outs that look alike come from different tables or passages of the source.

Legend:
[1] = Plasma pharmacokinetics of oral NMP by LCMSMS; format: in vivo, human; details: plasma, plasma
Protocol: Blood samples were taken from patients before NMP and at one, two, four, eight and 24 h post dose. Plasma samples (20 μl) were prepared by adding five volumes of methanol containing deuterated internal standard. The samples were vortexed then centrifuged, and the supernatant was transferred to a vial and injected onto the LCMSMS. The LCMSMS system consisted of a Shimadzu UHPLC with a SCIEX 6500QTrap, a KinetexC18 (3 × 50 mm, 2.6 μm) column and using a gradient of 0.1% formic acid and acetonitrile. The initial conditions were 0.5 ml/min and 2% acetonitrile; this was held for 1 min then increased to 20% acetonitrile at 2 min then increased to 70% acetonitrile and held for 0.5 min. Equilibration time was 0.5 min. MRMs for NMP were 100 → 58, 100 → 69, 100 → 41 and for the internal standard d9NMP 109 → 62, […]. PK analysis was performed using Pkanalix (version 2021R1. Antony, France: Lixoft SAS, 2021).

Healthy human volunteers = test system: Healthy human volunteers; parameters: method as in PMID 9029058, PMID 15458014; details: up to 100 mg orally and 300 mg transdermally; cited from earlier work
BET-bromodomains = test system: BET-bromodomains; parameters: method as in PMID 26047594, PMID 24813887; details: suppression of LPS-induced TNFα-secretion, downregulation of cMYC expression; cited from earlier work
[2] = parameters: method as in PMID 9029058; details: human, after a single 100 mg oral dose of NMP; cited from earlier work
[3] = oral 25 mg, patient RMH-01 occasion 6
[4] = oral 50 mg, average of N = 5 profiles
[5] = oral 50 mg, individual profiles, patient RMH-01 occasions 1-5
[6] = oral 100 mg, average of N = 5 profiles
[7] = oral 100 mg, individual profiles, patient RMH-02 occasions 1-5
[8] = oral 200 mg, average of N = 8 profiles
[9] = oral 200 mg, individual profiles (PMC-03, MON-04, MON-06, MON-07, PMC-08)
[10] = oral 200 mg, individual profiles (PMC-03, MON-04, PMC-05, MON-06, MON-07, PMC-08)
[11] = oral 300 mg, average of N = 3 profiles
[12] = oral 300 mg, individual profiles (PMC-09, MON-10, MON-11)
[13] = oral 400 mg, average of N = 2 profiles
[14] = oral 400 mg, individual profiles (MON-11 occasion 2, MON-12)
[15] = oral 500 mg, patient MON-11 occasion 3
[16] = oral 600 mg, patient MON-11 occasion 4
[17] = oral 700 mg, patient MON-11 occasion 5
[18] = oral 800 mg, patient MON-11 occasion 6

## CN1CCCC1=O [NMP, N-methyl-2-pyrrolidone]
[1]; human, po, 700 mg, oral 700 mg, patient MON-11 occasion 5, read-out: Half-life (converted)
  half-life: 141 min
[1]; human, po, 700 mg, oral 700 mg, patient MON-11 occasion 5, read-out: Tmax
  Tmax: 30 min
[1]; human, po, 800 mg, 800 mg dose level, oral, one patient, read-out: highest Cmax achieved
  Cmax: ~168 µM
[1]; human, po, 800 mg, oral 800 mg, patient MON-11 occasion 6, read-out: AUC
  AUC: 90300 ng·h/mL
[1]; human, po, 800 mg, oral 800 mg, patient MON-11 occasion 6, read-out: Cmax
  Cmax: 16700 ng/mL
[1]; human, po, 800 mg, oral 800 mg, patient MON-11 occasion 6, read-out: Half-life (converted)
  half-life: 105 min
[1]; human, po, 800 mg, oral 800 mg, patient MON-11 occasion 6, read-out: Tmax
  Tmax: 60 min
[1]; human, po, 800 mg, oral, one patient, read-out: Maximum plasma concentration (Cmax), highest achieved
  Cmax: 16700 ng/mL
[1]; human, po, all dose levels 25-800 mg oral, N = 28 profiles, read-out: Half-life, Overall Average (converted)
  half-life: 93 min
[1]; human, po, all dose levels 25-800 mg oral, N = 29 profiles, read-out: AUC, Overall Average
  AUC: 16900 ng·h/mL
[1]; human, po, all dose levels 25-800 mg oral, N = 29 profiles, read-out: Cmax, Overall Average
  Cmax: 5290 ng/mL
[1]; human, po, all dose levels 25-800 mg oral, N = 29 profiles, read-out: Tmax, Overall Average
  Tmax: ~30 min
[1]; [3]
  CL/F: 16.65 L⋅h⁻¹
  V/F: 20.83 L
[1]; [4]
  CL/F, Average: 23.62 L⋅h⁻¹
  V/F, Average: 36.62 L
[1]; [5]
  AUC: 1.86 h⋅mg⋅L⁻¹ and 1.88 h⋅mg⋅L⁻¹ and 2.09 h⋅mg⋅L⁻¹ and 2.18 h⋅mg⋅L⁻¹
  CL/F: 17.68 L⋅h⁻¹ and 26.86 L⋅h⁻¹ and 26.66 L⋅h⁻¹ and 23.93 L⋅h⁻¹ and 22.97 L⋅h⁻¹
  Cmax: 1.24 mg⋅L⁻¹ and 1.25 mg⋅L⁻¹ and 1.04 mg⋅L⁻¹ and 1.06 mg⋅L⁻¹
  V/F: 30.85 L and 38.66 L and 41.02 L and 35.88 L and 36.67 L
  half-life: 59.4 min and 64.2 min and 62.4 min and 66.6 min
[1]; [6]
  CL/F, Average: 14.04 L⋅h⁻¹
  V/F, Average: 36.98 L
[1]; [7]
  AUC: 7.25 h⋅mg⋅L⁻¹ and 6.95 h⋅mg⋅L⁻¹ and 7.61 h⋅mg⋅L⁻¹ and 6.88 h⋅mg⋅L⁻¹
  CL/F: 14.35 L⋅h⁻¹ and 13.79 L⋅h⁻¹ and 14.4 L⋅h⁻¹ and 13.13 L⋅h⁻¹ and 14.53 L⋅h⁻¹
  Cmax: 2.51 mg⋅L⁻¹ and 2.52 mg⋅L⁻¹ and 2.43 mg⋅L⁻¹ and 2.65 mg⋅L⁻¹
  V/F: 34.92 L and 41.77 L and 37.5 L and 34.02 L and 36.67 L
[1]; [8]
  CL/F, Average: 25.52 L⋅h⁻¹
  V/F, Average: 49.77 L
[1]; [9]
  CL/F: 31.82 L⋅h⁻¹ and 24.02 L⋅h⁻¹ and 25.05 L⋅h⁻¹ and 20.34 L⋅h⁻¹ and 18.2 L⋅h⁻¹ and 9.1 L⋅h⁻¹ and 57.76 L⋅h⁻¹ and 17.85 L⋅h⁻¹
  V/F: 64.35 L and 55.72 L and 43.19 L and 37.65 L and 36.79 L and 26.02 L and 87.19 L and 47.25 L
[1]; [10]
  AUC: 6.29 h⋅mg⋅L⁻¹ and 8.33 h⋅mg⋅L⁻¹ and 7.98 h⋅mg⋅L⁻¹ and 9.83 h⋅mg⋅L⁻¹ and 5.49 h⋅mg⋅L⁻¹ and 10.99 h⋅mg⋅L⁻¹ and 21.99 h⋅mg⋅L⁻¹ and 3.46 h⋅mg⋅L⁻¹ and 11.21 h⋅mg⋅L⁻¹
  Cmax: 2.33 mg⋅L⁻¹ and 3.98 mg⋅L⁻¹ and 4.43 mg⋅L⁻¹ and 5.05 mg⋅L⁻¹ and 2.05 mg⋅L⁻¹ and 4.95 mg⋅L⁻¹ and 7.26 mg⋅L⁻¹ and 2.64 mg⋅L⁻¹ and 3.79 mg⋅L⁻¹
[1]; [11]
  CL/F, Average: 15.62 L⋅h⁻¹
  V/F, Average: 33.93 L
[1]; [12]
  AUC: 32.55 h⋅mg⋅L⁻¹ and 12.73 h⋅mg⋅L⁻¹ and 21.3 h⋅mg⋅L⁻¹
  CL/F: 9.22 L⋅h⁻¹ and 23.57 L⋅h⁻¹ and 14.08 L⋅h⁻¹
  Cmax: 6.89 mg⋅L⁻¹ and 6.81 mg⋅L⁻¹
  V/F: 22.09 L and 38.59 L and 41.1 L
  half-life: 67.8 min and 121 min
[1]; [13]
  CL/F, Average: 19.53 L⋅h⁻¹
  V/F, Average: 42.44 L
[1]; [14]
  AUC: 15.99 h⋅mg⋅L⁻¹
  CL/F: 14.03 L⋅h⁻¹ and 25.02 L⋅h⁻¹
  Cmax: 7.63 mg⋅L⁻¹
  V/F: 35.95 L and 48.93 L
  half-life: 81.6 min
[1]; [15]
  CL/F: 12.33 L⋅h⁻¹
  V/F: 35.2 L
[1]; [16]
  CL/F: 10.59 L⋅h⁻¹
  V/F: 33.11 L
[1]; [17]
  CL/F: 12.16 L⋅h⁻¹
  V/F: 41.26 L
[1]; [18]
  CL/F: 8.86 L⋅h⁻¹
  V/F: 22.43 L
Healthy human volunteers
  acute adverse effects after a single dose: no acute adverse effects
BET-bromodomains
  concentration at which NMP phenocopies effects of BET-inhibitors: 1 to 10 mM
[2]
  amount found in urine: 0.8%
